Source: patent US10729130B2, “Nematicidal compositions and methods of using them” (Eden Research plc, priority 2004, dated 2020)
Values joined by “and” are separate entries in the source; they are usually repeats but may differ in a detail not shown here. Equal values may be shown once.

Tests used:
Root Knot nematodes = assay: Nematicidal effects of citral in soil, Root Knot nematodes; format: in vivo, root-knot nematode
Procedure: Methodology: Nematodes used for the analysis originated from commercial agricultural crop soils. Species of nematode included root-knot and citrus. Prior to commencement of each study the nematodes were counted and evaluated for viability. In each experiment soil samples were infected with only one species of nematode. Three measured quantities of soil (250 g) were placed into large PVC plastic containers. Soil moisture was assessed by weighing a soil sample and then drying the sample in a drying oven. Soil moisture content was confirmed using a “Hydroscout” instrument. In all cases the moisture content measured by both methods was within the resolution of the instruments. By determining the water content of the soil it was possible to calculate the volume of terpene solution which would be diluted when mixed with the soil. […] These dilutions were by volume not the more commonly used mass ratios. The reason for using volume dilutions was simply one of convenience enabling the use of a micropipette or cylinder to measure the terpene. The mass ratio of the ‘in soil’ and ‘in water’ solution could be simply calculated by multiplying the ppm of terpene by it's density (0.92 g/ml). The terpene solution was added to each test tube containing a weighed sample of nematode infected soil. The terpene solution and soil were mixed by inverting the test tube several times. […] In each experiment a control group was treated with distilled water. The % mortality (kill) rates in the treatment groups was compared with the control population. The nematodes were extracted by “Sieving & mist extraction” (Ayoub, S. M. 1977) prior to being counted. Criteria for Evaluation: Nematode counts were performed to determine the proportion of nematodes which survived and were killed in each treatment group. […] The results are shown below on Table 17 to 19. The experiment was performed once again, this time with the following changes: • Dose range of 125 ppm-750 ppm was used. • Glass tubes containing 150 g of soil were used as opposed to PVC tubes in previous experiments.

Saprophagous nematodes = assay: Nematicidal activity of citral on Saprophagous nematodes (selectivity experiment); details: 250 ppm
Description: Living saprophagus nematodes move rapidly in water. The control used was the nematodes in water alone.
The figures given are for the percentage of nematodes found to be dead upon microscopic examination and are the average of 2 replicates.

[1] = Loading of terpenes (L-carvone) into SAF Mannan in minimal water (free terpene, flow); format: physicochemical; parameters: key to Free Terpene: +: “free terpene” refers to the visible presence of terpene in the centrifuged reaction mixture; −: The absence of free terpene indicates complete absorption of the terpene by the particles; key to Flow: Sl = slight; details: emulsion 4.64 g; for Flow: flow in inverted tubes over 15 minutes
Procedure: The following protocol was carried out to evaluate the possibility that terpene loading and encapsulation into YP could be carried out at a very high Yeast Particles (YP) solids level to allow for direct extrusion of the loaded formulation into a fluidised bed drier. The minimal amount of water to completely hydrate the SAF Mannan™ particles was determined to be 3.53 g water per g solids. This defines the hydrodynamic volume (HV) or water absorptive capacity of the particles. At this level of water the hydrated particles have a consistency of a stiff dough which is thixotropic, i.e. shear thinning like mayonnaise. Addition of water up to 40% above the HV results in a thick flowable paste. The standard reaction that has been used in the above examples was carried out at 3×HV water.
. Controls were the standard loading system which uses 3×HV water, particles only and terpene only reactions. Following overnight incubation samples of the mixtures were evaluated microscopically for free terpene and evidence of terpene uptake into the particles and for material flow characteristics by assessing flow in inverted tubes over 15 minutes. In addition, the presence of free oil was assessed by hydrating the reaction mixture with 5×HV, vortexing to obtain a complete dispersion of particles and centrifugation to sediment the particle encapsulated terpene. FIGS. 7 to 12 show the loading results of the following tubes: • FIG. 7—Tube 3 • FIG. 8—Tube 5 • FIG. 9—Tube 6 • FIG. 10—Tube 8 • FIG. 11—Tube 10 • FIG. 12—Tube 11

[2] = Xanthan gum as interstitial hydrocolloid: dispersion of dried encapsulated L-carvone particles when re-hydrated; format: physicochemical; details: dispersion on re-hydration, SAF 1 g, L-carvone emulsion 1.1 g
Procedure: The following protocol was adopted to evaluate the effect of an interstitial hydrocolloid to increase dried hollow glucan particle encapsulated terpene formulations to disperse when hydrated. • SAF Mannan™ particles • 0.1% Tween 80 • L-carvone • Xanthan Gum—1% w/v in 0.1% Tween 80
The effect of increasing xanthan gum levels on dry hollow glucan particle encapsulated L-carvone dispersion in water was assessed by loading L-carvone into SAF Mannan by incubating 1.1 g of an L-carvone emulsion (L-carvone:water:surfactant ratio of 0.75:0.3:0.05) with 1 g SAF Mannan and 4.4 g 0.1% Tween 80 containing 0-1% xanthan gum as shown in Table 32.

CC(C)=CCCC(C)=CC=O [Citral, citral]
Mean % killed (Root Knot nematodes; first experiment (Table 15), soil, 62.5 ppm, 8 replicates): 18.87%
Mean % killed (Root Knot nematodes; first experiment (Table 15), soil, 125 ppm, 8 replicates): 4.34%
Mean % killed (Root Knot nematodes; first experiment (Table 15), soil, 250 ppm, 8 replicates): 23.66%
Mean % killed (Root Knot nematodes; first experiment (Table 15), soil, 500 ppm, 8 replicates): 67.10%
Mean % killed (Root Knot nematodes; repeated protocol (Table 18), soil, 500 ppm, N 10): 99.6%
Mean % killed (Root Knot nematodes; third experiment (Table 20), glass tubes, 150 g of soil, 125 ppm, N 8): 74.51%
Mean % killed (Root Knot nematodes; third experiment (Table 20), glass tubes, 150 g of soil, 250 ppm, N 8): 97.37%
Mean % killed (Root Knot nematodes; third experiment (Table 20), glass tubes, 150 g of soil, 500 ppm, N 8): 100%
Mean % killed (Root Knot nematodes; third experiment (Table 20), glass tubes, 150 g of soil, 750 ppm, N 8): 99.42%
% dead (Saprophagous nematodes; 24 h): 43% and 50%
% dead (Saprophagous nematodes; 48 h): 50% and 52%

L-carvone
Free Terpene ([1]; Tube 1: terpene only control, no SAF, water 4.5 g): +
Free Terpene ([1]; Tube 3: SAF 1 g, water 4.5 g (standard loading, 3×HV)): −
Free Terpene ([1]; Tube 4: SAF 1 g, water —): −
Free Terpene ([1]; Tube 5: SAF 1 g, water 0.17 g): −
Free Terpene ([1]; Tube 6: SAF 1 g, water 0.35 g): −
Free Terpene ([1]; Tube 7: SAF 1 g, water 0.52 g): −
Free Terpene ([1]; Tube 8: SAF 1 g, water 0.7 g): −
Free Terpene ([1]; Tube 9: SAF 1 g, water 0.87 g): −
Free Terpene ([1]; Tube 10: SAF 1 g, water 1.05 g): −
Free Terpene ([1]; Tube 11: SAF 1 g, water 1.39 g): −
Flow ([1]; Tube 7: SAF 1 g, water 0.52 g): Sl
Flow ([1]; Tube 8: SAF 1 g, water 0.7 g): Mod
Flow ([1]; Tube 9: SAF 1 g, water 0.87 g): High
Flow ([1]; Tube 10: SAF 1 g, water 1.05 g): High
Flow ([1]; Tube 11: SAF 1 g, water 1.39 g): High
Visual Observations ([2]; 0.1% Tween-80 0 g, 1% xanthan 4.4 g): Finer Uniform
Visual Observations ([2]; 0.1% Tween-80 2.2 g, 1% xanthan 2.2 g): Finer Uniform
Visual Observations ([2]; 0.1% Tween-80 3.3 g, 1% xanthan 1.1 g): Finer Uniform
Visual Observations ([2]; 0.1% Tween-80 3.85 g, 1% xanthan 0.55 g): Uniform
Visual Observations ([2]; 0.1% Tween-80 4.12 g, 1% xanthan 0.28 g): Uniform
Visual Observations ([2]; 0.1% Tween-80 4.26 g, 1% xanthan 0.14 g): Uniform
Visual Observations ([2]; 0.1% Tween-80 4.33 g, 1% xanthan 0.07 g): Uniform
Visual Observations ([2]; 0.1% Tween-80 4.4 g, 1% xanthan 0 g): Large non-
